Data published in article PMC5564600 (Oncotarget, 2017).

Experiments:
Assay in all cases: biochemical
Format in all cases: binding
[1] = biological target: T1, panel of 442 kinases (Homo sapiens, UniProt Q9NRH2); conditions: kinase SNRK; for remaining activity at 1 µM: read-out: SNRK (% of control at 1 µM)
T1 construct: purchased Ambit Biosciences (scanMAXX KINOMEscan)
T1 sequence (Q9NRH2 1-765): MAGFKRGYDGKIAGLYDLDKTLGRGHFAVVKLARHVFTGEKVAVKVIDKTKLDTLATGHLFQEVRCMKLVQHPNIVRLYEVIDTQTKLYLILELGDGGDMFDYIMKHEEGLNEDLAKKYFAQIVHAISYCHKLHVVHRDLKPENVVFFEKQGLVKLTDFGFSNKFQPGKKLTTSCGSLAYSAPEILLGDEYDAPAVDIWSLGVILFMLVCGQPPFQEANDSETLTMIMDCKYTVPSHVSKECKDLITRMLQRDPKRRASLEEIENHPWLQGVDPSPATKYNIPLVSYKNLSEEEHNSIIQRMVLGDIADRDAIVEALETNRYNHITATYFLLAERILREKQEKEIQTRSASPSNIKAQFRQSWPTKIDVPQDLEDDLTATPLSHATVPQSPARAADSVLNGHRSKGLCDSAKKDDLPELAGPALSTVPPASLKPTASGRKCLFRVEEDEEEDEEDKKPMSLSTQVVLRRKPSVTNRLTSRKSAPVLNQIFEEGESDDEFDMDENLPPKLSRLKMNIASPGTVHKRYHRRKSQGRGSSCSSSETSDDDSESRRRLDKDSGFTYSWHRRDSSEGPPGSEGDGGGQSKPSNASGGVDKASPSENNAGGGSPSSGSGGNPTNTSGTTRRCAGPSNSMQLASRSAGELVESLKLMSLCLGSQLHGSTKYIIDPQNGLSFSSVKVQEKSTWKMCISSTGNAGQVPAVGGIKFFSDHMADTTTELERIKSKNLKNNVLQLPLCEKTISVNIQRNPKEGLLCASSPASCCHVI

[2] = biological target: T2, panel of 442 kinases (Homo sapiens, UniProt Q13131); conditions: AMPK-alpha1; for remaining activity at 1 µM: read-out: % of control at 1 µM
T2 construct: purchased Ambit Biosciences (scanMAXX KINOMEscan)

[3] = biological target: T3, panel of 442 kinases (Homo sapiens, UniProt Q06418); conditions: kinase TYRO3; for remaining activity at 1 µM: read-out: TYRO3 (% of control at 1 µM)
T3 construct: purchased Ambit Biosciences (scanMAXX KINOMEscan)
T3 sequence (Q06418 41-890): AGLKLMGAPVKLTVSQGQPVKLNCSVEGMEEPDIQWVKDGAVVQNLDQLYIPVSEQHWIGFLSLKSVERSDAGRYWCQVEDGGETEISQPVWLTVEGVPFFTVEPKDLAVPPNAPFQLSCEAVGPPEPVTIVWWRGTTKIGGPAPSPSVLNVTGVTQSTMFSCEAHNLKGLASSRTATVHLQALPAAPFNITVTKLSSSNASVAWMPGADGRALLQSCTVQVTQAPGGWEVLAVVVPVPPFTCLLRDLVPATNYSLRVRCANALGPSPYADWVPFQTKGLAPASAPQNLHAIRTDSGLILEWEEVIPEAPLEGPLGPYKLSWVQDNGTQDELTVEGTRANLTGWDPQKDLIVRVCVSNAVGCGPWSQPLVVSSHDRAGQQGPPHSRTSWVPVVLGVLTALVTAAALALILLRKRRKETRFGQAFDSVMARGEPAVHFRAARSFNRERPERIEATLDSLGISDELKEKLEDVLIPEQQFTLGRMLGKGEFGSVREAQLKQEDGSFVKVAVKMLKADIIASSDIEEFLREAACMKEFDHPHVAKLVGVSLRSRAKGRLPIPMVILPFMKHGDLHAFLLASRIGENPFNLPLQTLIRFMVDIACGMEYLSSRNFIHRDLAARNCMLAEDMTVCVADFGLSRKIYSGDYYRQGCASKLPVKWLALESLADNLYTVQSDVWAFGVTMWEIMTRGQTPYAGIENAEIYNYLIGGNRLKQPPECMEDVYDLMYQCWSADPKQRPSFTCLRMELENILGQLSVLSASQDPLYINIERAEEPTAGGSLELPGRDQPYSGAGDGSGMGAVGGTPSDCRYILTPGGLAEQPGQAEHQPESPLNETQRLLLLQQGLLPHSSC

[4] = biological target: T4, panel of 442 kinases (Homo sapiens, UniProt Q9NYY3); conditions: kinase PLK2; for remaining activity at 1 µM: read-out: PLK2 (% of control at 1 µM)
T4 construct: purchased Ambit Biosciences (scanMAXX KINOMEscan)

[5] = biological target: T5, panel of 442 kinases (Plasmodium falciparum, UniProt P61075); conditions: kinase PFPK5(P.falciparum); for remaining activity at 1 µM: read-out: % of control at 1 µM; for remaining activity at 10 µM: read-out: % of control at 10 µM
T5 construct: purchased Ambit Biosciences (scanMAXX KINOMEscan)

[6] = biological target: T6, panel of 442 kinases (Homo sapiens, UniProt P19525); conditions: kinase PRKR; for remaining activity at 1 µM: read-out: PRKR (% of control at 1 µM)
T6 construct: purchased Ambit Biosciences (scanMAXX KINOMEscan)
T6 sequence (P19525 whole entry): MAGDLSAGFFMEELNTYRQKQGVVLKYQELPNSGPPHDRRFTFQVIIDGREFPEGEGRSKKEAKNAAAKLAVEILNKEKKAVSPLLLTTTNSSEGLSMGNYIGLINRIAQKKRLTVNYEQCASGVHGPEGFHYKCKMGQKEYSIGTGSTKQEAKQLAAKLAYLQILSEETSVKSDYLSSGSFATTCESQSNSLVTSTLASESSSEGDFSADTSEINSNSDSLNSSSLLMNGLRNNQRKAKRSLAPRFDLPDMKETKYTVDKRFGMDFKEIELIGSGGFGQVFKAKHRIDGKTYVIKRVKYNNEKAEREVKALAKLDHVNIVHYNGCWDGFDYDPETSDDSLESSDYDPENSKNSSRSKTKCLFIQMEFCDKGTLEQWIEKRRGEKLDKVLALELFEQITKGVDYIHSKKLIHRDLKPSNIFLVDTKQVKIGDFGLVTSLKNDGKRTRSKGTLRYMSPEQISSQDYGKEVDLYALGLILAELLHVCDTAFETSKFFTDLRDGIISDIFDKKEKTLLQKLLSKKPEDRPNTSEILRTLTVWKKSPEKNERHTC

T2 sequence (Q13131 whole entry): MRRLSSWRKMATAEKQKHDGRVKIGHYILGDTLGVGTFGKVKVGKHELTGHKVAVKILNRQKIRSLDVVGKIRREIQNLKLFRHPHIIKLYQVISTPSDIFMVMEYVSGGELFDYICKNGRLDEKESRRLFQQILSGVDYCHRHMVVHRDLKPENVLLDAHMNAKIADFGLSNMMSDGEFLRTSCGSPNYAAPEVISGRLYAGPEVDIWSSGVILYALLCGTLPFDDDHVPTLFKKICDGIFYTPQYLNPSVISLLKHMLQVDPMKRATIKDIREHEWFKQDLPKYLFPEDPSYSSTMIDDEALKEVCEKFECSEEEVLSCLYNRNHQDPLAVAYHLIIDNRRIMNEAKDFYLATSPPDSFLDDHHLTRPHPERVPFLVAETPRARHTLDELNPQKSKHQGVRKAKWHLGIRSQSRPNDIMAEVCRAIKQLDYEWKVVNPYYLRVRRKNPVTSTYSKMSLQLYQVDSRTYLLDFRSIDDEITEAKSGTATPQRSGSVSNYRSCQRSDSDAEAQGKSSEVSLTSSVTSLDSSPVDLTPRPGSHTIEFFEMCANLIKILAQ
T4 sequence (Q9NYY3 whole entry): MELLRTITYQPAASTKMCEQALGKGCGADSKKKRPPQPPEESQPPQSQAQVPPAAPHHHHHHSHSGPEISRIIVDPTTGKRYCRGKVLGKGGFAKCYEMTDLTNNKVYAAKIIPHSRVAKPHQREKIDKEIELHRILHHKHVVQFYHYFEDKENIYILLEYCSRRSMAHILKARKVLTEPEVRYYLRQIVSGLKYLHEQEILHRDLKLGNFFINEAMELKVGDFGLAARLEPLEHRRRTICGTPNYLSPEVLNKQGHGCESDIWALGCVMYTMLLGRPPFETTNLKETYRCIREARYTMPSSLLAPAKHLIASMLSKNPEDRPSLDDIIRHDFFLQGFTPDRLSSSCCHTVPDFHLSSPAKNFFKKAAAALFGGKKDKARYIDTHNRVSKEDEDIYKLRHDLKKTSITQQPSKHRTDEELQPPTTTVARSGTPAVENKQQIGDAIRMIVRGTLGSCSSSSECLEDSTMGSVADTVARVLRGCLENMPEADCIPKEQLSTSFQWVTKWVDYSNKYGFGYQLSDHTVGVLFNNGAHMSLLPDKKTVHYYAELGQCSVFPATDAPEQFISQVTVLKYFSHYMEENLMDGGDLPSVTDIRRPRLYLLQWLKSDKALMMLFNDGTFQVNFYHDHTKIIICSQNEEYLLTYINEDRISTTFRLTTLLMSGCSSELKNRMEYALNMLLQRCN
T5 sequence (P61075 whole entry): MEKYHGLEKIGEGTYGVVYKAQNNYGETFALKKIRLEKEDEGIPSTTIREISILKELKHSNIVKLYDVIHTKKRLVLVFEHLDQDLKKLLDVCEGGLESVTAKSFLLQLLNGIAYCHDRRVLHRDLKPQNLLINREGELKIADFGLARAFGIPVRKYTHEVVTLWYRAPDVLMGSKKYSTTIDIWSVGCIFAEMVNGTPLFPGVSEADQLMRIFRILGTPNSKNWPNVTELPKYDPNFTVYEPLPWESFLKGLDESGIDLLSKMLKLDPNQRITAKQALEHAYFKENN

Nc1cc(C(F)(F)F)c(-c2cc(N3CCOCC3)nc(N3CCOCC3)n2)cn1 [Buparlisib]
remaining activity at 1 µM [1]: 90%
remaining activity at 10 µM ([1]; 10 µM, read-out: SNRK (% of control at 10 µM)): 100%
remaining activity at 1 µM [2]: 96%
remaining activity at 10 µM ([2]; 10 µM, read-out: % of control at 10 µM): 100%
remaining activity at 1 µM [3]: 100%
remaining activity at 10 µM ([3]; 10 µM, read-out: TYRO3 (% of control at 10 µM)): 100%
remaining activity at 1 µM [4]: 89%
remaining activity at 10 µM ([4]; 10 µM, read-out: PLK2 (% of control at 10 µM)): 100%
remaining activity at 1 µM [5]: 100%
remaining activity at 10 µM [5]: 100%
remaining activity at 1 µM [6]: 88%
remaining activity at 10 µM ([6]; 10 µM, read-out: PRKR (% of control at 10 µM)): 100%

Cn1c(=O)n(-c2ccc(C(C)(C)C#N)cc2)c2c3cc(-c4cnc5ccccc5c4)ccc3ncc21 [Dactolisib, 2-methyl-2-[4-(3-methyl-2-oxo-8-quinolin-3-yl-2,3-dihydroimidazo[4,5-c]quinolin-1-yl)-phenyl] propionitrile]
remaining activity at 1 µM [1]: 71%
remaining activity at 1 µM [2]: 97%
remaining activity at 1 µM [3]: 100%
remaining activity at 1 µM [4]: 100%
remaining activity at 1 µM [5]: 100%
remaining activity at 1 µM [6]: 95%

COc1ncc(-c2ccc3nccc(-c4ccnnc4)c3c2)cc1NS(=O)(=O)c1ccc(F)cc1F [Omipalisib]
remaining activity at 1 µM [1]: 88%
remaining activity at 1 µM [2]: 100%
remaining activity at 1 µM [3]: 100%
remaining activity at 1 µM [4]: 100%
remaining activity at 1 µM [5]: 100%
remaining activity at 1 µM [6]: 84%

CS(=O)(=O)N1CCN(Cc2cc3nc(-c4cccc5[nH]ncc45)nc(N4CCOCC4)c3s2)CC1 [Pictilisib, 2-(1H-indazol-4-yl)-6-(4-methanesulfonyl-piperazin-1-ylmethyl)-4-morpholin-4-yl-t hieno[3,2-d]pyrimidine]
remaining activity at 1 µM [5]: 92%
remaining activity at 10 µM [5]: 100%

FC(F)c1nc2ccccc2n1-c1nc(N2CCOCC2)nc(N2CCOCC2)n1 [ZSTK474, 2-(difluoromethyl)-1-[4,6-di(4-morpholinyl)-1,3,5-triazin-2-yl]-1H-benzimidazole]
remaining activity at 1 µM [1]: 100%
remaining activity at 1 µM [2]: 100%
remaining activity at 1 µM [3]: 88%
remaining activity at 1 µM [4]: 100%
remaining activity at 1 µM [5]: 100%
remaining activity at 1 µM [6]: 93%
